Assay results reported in patent US9517227B2, “Dihydropyrazoles” (Merck Patent GmbH, priority 2011, dated 2016).

How the values were obtained:
[1] = target: T1, FSHR (Homo sapiens, UniProt P23945); experiment: EC50 of cyclic AMP production in CHO FSHR cells + EC20 FSH (Assay A); assay type: cell-based; conditions: CHO-FSHR-LUC cells, 0.265 pM FSH (EC20), cAMP HTRF, 1 h
T1 construct: expressed in transfected cells; host or cells: CHO (Cho-FSHR-LUC-1-1-43)
T1 sequence (P23945 18-695): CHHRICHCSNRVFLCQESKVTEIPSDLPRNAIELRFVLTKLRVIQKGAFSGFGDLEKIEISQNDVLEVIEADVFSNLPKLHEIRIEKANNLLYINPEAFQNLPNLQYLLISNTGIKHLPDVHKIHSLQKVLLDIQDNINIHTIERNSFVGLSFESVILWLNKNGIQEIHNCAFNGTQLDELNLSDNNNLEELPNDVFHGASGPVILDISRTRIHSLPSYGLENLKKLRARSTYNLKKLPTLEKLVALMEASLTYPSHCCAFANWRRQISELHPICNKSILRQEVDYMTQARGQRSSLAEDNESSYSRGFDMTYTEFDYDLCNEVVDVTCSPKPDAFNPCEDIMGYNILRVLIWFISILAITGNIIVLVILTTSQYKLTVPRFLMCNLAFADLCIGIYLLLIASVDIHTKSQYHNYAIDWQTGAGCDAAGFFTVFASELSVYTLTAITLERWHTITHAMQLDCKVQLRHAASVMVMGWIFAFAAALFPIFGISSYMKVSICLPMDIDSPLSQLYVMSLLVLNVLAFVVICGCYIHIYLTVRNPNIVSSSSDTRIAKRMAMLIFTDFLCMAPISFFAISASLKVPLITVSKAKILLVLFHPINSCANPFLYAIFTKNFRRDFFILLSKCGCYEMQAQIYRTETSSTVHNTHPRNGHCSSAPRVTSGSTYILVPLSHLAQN
Procedure: EC50 of Cyclic AMP Production in CHO FSHR Cells+EC20 FSH (Assay A)
2500 Cho-FSHR-LUC-1-1-43 cells were plated per well in 5 μl of phenol red free DMEM/F12+1% FBS. Cells were plated in 384 well, solid white low volume plates (Greiner 784075) by Multidrop. Cells were assayed by adding 100 μl of 2×EC20 FSH/IBMX in DMEM/F12+0.1% BSA) by Multidrop to 2 μl of test compound stamped in 384 well plates (compounds are diluted 1:50). The final FSH concentration was 0.265 pM, and the final IBMX concentration was 200 μM. The compound plate map was as follows: Column 1: 2 μl of DMSO; Column 2: 2 μl of DMSO; Columns 3-12 and 13-24: 2 μl of test compound, diluted 1:4 in 100% DMSO, or 2 μl of FSH, diluted 1:4 in DMEM/F12+0.1% BSA. The starting concentration for FSH was 50 nM (final concentration was 0.5 nM). Furthermore, Column 23 contained 2 μl of EC100 FSH reference (100×) (diluted in DMEM/F12+0.1% BSA) at a final concentration of 0.5 nM, and Column 24 contained 2 μl of 1 mM AS707664/2 reference compound 2. 5 μl of compound+EC20 FSH mixture were transferred to cell plates (1:2 dilution into 5 μl of cell media). The plates were incubated at 37° C. for 1 h. 10 μl of mixed HTRF (CisBio #62AM4PEC) reagents were added per well and incubated at room temperature for 1 h. The plates were read on Envision using the cAMP HTRF—low volume 384 well protocol. The readout was the calculated fluorescence ratio (665 nm/620 nm).

[2] = target: T2, follicle-stimulating hormone (FSH) receptor (Rattus norvegicus, UniProt P20395); experiment: Rat granulosa EC50 FSH (Assay B); assay type: cell-based; conditions: rat granulosa cells; for EC50: per Yanofsky et al. 2006
T2 construct: endogenous in cells; host or cells: rat granulosa cells
T2 sequence (P20395 18-692): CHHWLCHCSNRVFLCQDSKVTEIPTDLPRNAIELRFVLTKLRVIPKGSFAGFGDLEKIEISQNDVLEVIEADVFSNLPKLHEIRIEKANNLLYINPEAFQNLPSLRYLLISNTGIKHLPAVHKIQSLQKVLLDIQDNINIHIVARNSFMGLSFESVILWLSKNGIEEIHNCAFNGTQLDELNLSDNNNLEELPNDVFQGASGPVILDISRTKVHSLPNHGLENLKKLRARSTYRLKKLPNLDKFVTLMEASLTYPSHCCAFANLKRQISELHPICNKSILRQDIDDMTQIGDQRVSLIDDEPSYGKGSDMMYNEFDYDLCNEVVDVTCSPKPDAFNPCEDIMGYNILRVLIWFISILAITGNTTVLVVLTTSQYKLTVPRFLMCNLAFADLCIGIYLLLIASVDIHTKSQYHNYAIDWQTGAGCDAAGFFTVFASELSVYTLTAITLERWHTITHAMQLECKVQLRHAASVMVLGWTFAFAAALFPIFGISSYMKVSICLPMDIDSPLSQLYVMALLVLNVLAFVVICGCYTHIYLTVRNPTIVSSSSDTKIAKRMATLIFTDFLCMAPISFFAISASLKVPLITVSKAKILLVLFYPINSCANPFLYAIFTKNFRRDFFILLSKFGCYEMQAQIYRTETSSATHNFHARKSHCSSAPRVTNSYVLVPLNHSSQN
Procedure: Rat Granulosa EC50 FSH (Assay B)
The assay was performed pursuant to the teaching of Yanofsky et al. (2006) Allosteric activation of the follicle-stimulating hormone (FSH) receptor by selective, nonpeptide agonists. JBC 281(19): 13226-13233, which is incorporated by reference in the disclosure of the invention.

EC50 [1] [µM]	EC50 [2] [µM]	Assay B: value given in % (rat granulosa) ([2]; meaning of % not stated) [%]	SMILES
31	0.342		COc1ccc(C2=NN(C(=O)Cc3cccc(F)c3)CC2)cc1OC [Compound 241, 1-[3-(3,4-Dimethoxy-phenyl)-4,5-dihydro-pyrazol-1-yl]-2-(3-fluoro-phenyl)-ethanone]
22.4	0.699		COc1ccc(C2=NN(C(=O)c3cccc(C(F)(F)F)c3)C(C)(C)C2)cc1OC [Compound 234, [3-(3,4-Dimethoxy-phenyl)-5,5-dimethyl-4,5-dihydro-pyrazol-1-yl]-(3-trifluoromethyl-phenyl)-methanone]
28	1.19		COc1ccc(C2=NN(C(=O)c3cc(F)c(F)c(F)c3F)CC2)cc1OC [Compound 80]
41.5	0.025		COc1ccc(C2=NN(C(=O)c3cccc(C#N)c3)C(C)(C)C2)cc1OC [Compound 132, 3-[3-(3,4-Dimethoxy-phenyl)-5,5-dimethyl-4,5-dihydro-pyrazole-1-carbonyl]-benzonitrile]
35	0.363		COc1ccc(C2=NN(C(=O)c3cccc(F)c3)C(C)(C)C2)cc1OC [Compound 129, [3-(3,4-Dimethoxy-phenyl)-5,5-dimethyl-4,5-dihydro-pyrazol-1-yl]-(3-fluoro-phenyl)-methanone]
27	0.726		CCc1cccc(C(=O)N2CCC(c3ccc(OC)c(OC)c3)=N2)c1 [Compound 93]
16.7	0.878		COc1ccc(C2=NN(C(=O)c3cccc(F)c3)CC2)cc1OC [Compound 1]
29		186.00	COc1ccc(C2=NN(C(=O)[C@@H](OC)c3ccccc3)CC2)cc1OC [Compound 292]
38.7	0.572		COc1ccc(C2=NN(C(=O)c3cccc(C)c3)C(C)(C)C2)cc1OC [Compound 232, [3-(3,4-Dimethoxy-phenyl)-5,5-dimethyl-4,5-dihydro-pyrazol-1-yl]-m-tolyl-methanone]
9.75	0.465		COc1ccc(C2=NN(C(=O)c3cccc(Br)c3)CC2)cc1OC [Compound 61]
11	0.348		COc1ccc(C2=NN(C(=O)c3cccc(C(F)(F)F)c3)CC2)cc1OC [Compound 64]
2.88	3.4		COc1ccc(-c2ccn(C(=O)c3ccc4c(c3)OCO4)n2)cc1OC [Compound 148]
8.61	0.729		COc1ccc(C2=NN(C(=O)c3cccc(F)c3F)CC2)cc1OC [Compound 77]
27.8	0.216		COc1ccc(C2=NN(C(=O)c3cccc(Br)c3)C(C)(C)C2)cc1OC [Compound 233, (3-Bromo-phenyl)-[3-(3,4-dimethoxy-phenyl)-5,5-dimethyl-4,5-dihydro-pyrazol-1-yl]-methanone]
21	5.09		COc1ccc(C2=NN(C(=O)c3cccc(C)c3)CC2)cc1OC [Compound 65]
35.7	0.538		COc1ccc(C2=NN(C(=O)c3ccc(C)cc3)C(C)(C)C2)cc1OC [Compound 235, [3-(3,4-Dimethoxy-phenyl)-5,5-dimethyl-4,5-dihydro-pyrazol-1-yl]-p-tolyl-methanone]
25.3	1.73		COc1ccc(C2=NN(C(=O)c3ccc(F)c(C(F)(F)F)c3)C(C)(C)C2)cc1OC [Compound 236, [3-(3,4-Dimethoxy-phenyl)-5,5-dimethyl-4,5-dihydro-pyrazol-1-yl]-(4-fluoro-3-trifluoromethyl-phenyl)-methanone]
